These are literature values, as cited in patent US20040157925A1, “Stable pharmaceutical composition of pravastatin” (priority 2001, published 2004).

Each structure is given as a SMILES string.

For this data set the following is noted: pH 3 or less as found in the stomach; degrades to lactone and 3-a-hydroxy-isopravastatin.

For `CC[C@H](C)C(=O)O[C@H]1C[C@H](O)C=C2C=C[C@H](C)[C@H](CC[C@@H](O)C[C@@H](O)CC(=O)O)[C@H]21` [Pravastatin sodium, (+)-(3R, 5R)-3,5-dihydroxy-7-[(1 S,2S,6S, 8S, 8aR)-6-hydroxy-2-methyl-8-[(S)-2-methylbutyryloxy]-1,2,6,7,8,8a-hexahydro-1-naphthyl]heptanoate], the “Stability in a low pH environment” value is “very unstable”.
